The compounds below were run on Bmi-1 protein (assay: Sandwich ELISA Assay: Bmi-1 protein level in HT-1080 cells treated with test compounds).
Assay type: cell-based
Experimental: Cell Seeding and Compound Treatment (Day 1):
HT-1080 cells were seeded at 8000 cells/well (50 μL) in 96-well tissue culture plates. After the cells became adherent (3-4 hours), 2× diluted stocks of test compounds in 50 μL DMEM containing 1% DMSO (final DMSO concentration was 0.5%) were added and the plates were incubated at 37° C. under 5% CO2 for 40-48 hours.
ELISA Plate First Antibody Preparation (Day 2):
The First Antibody (Millipore Mouse, monoclonal to mouse Bmi-1, clone F6, catalog #05-637) diluted to 2 μg/mL in PBS was added (100 μL) to each well of a Nunc MaxiSorp 96-well ELISA plate. The plate was covered with a plate seal and allowed to stand overnight.
Cell Lysate Preparation (Day 3):
Fresh Lysis buffer (1×) was prepared on the day of the assay as follows: 1 mM EDTA, 150 mM NaCl, 0.5% Triton-X 100, 10 mM NaF, 20 mM B-Glycerophosphate, 1 mM DTT (in PBS, pH 7.2-7.4) and HALT protease inhibitor cocktail (1×) (Pierce #78410).
Lysis Buffer (1×, 40 μL) was added to each well and the plate was shaken for 5-10 minutes on an orbital shaker to allow cell lysis, then diluent (1% BSA in PBS in 0.5% NP40) (100 μL) was added to each well.
A standard curve was prepared at the following Bmi-1 concentrations: 8000, 4000, 2000, 1000, 500, 250, 125 and 0 pg/mL. The Bmi-1 Recombinant Protein Standard (Novus Biologicals PCGF4 Recombinant Protein (P01), catalog # H00000648-P01) used to prepare the standard curve was stored at −80° C. On first thaw, the Recombinant Protein Standard was diluted to 10 μg/μL in Blocking Buffer (1% BSA in PBS; BSA: Fisher Scientific Catalog #1600-100). Aliquots were taken and refrozen at −80° C. The aliquots may be kept at 4° C. and reused after first thaw, but only within 1-2 weeks. The Recombinant Protein Standard contains a GST-fusion tag that appears at approximately 70 Kda on Western Blot.
The prepared ELISA plate was washed 3× with Wash Buffer (0.05% Tween-20 in PBS). The final wash was removed from the plate and the plate was blotted dry. Blocking Buffer (300 μL) (1% BSA in PBS) was added to each well. The plate was covered with a plate seal and incubated at room temperature for 1 hour. The blocked plate was washed 3× with Wash Buffer, then the final wash was removed and the plate was blotted dry. The previously prepared samples and standards were added (100 μL/well) and the plate was covered with a plate seal and incubated at 4° C. overnight.
The prepared ELISA plate was removed from incubation and allowed to stand at room temperature for 30 minutes, then washed and blotted dry. The Second Antibody (Cell Signaling Rabbit anti-Bmi-1, Cat# 2830) diluted to 1:600 in Blocking Buffer was added (100 μL) to each well, except as needed for background control wells. The plate was covered with a plate seal and incubated for 1.5 hrs at room temperature.
The ELISA plate was washed and blotted dry as previously described. The Third Antibody (Cell Signaling HRP conjugated anti-rabbit IgG (CellSignaling, Cat#:7074) diluted to 1:300 in Blocking Buffer was added (100 μL) to each well, except as needed for background control wells. The plate was incubated for 1 hr at room temperature.
The plate was washed and blotted dry, then a previously prepared TMB substrate (TMB substrate kit, Pierce catalog #34021) (prepared by mixing kit reagents 1:1) (100 μL) was added per well. The plate was incubated for 20-30 minutes at room temperature in the dark, then Stop Solution (2 M sulfuric acid in water) (50 μL) was added per well. The plates were read at OD450 (experimental) and OD570 (reference).

Question: Which EC50 does the source give for COc1ccc(Nc2nc(N)nc(-c3c(C(F)(F)F)nc4ccccn34)n2)cc1F [Cpd 1, N-(3-fluoro-4-methoxyphenyl)-6-[2-(trifluoromethyl)imidazo[1,2-a]pyridin-3-yl]-1,3,5-triazine-2,4-diamine] here?
Answer: 1 to 10 nM

Question: Which EC50 does the source give for Cc1nc2ccccc2n1-c1nc(N)nc(Nc2ccc(C(F)(F)F)cc2)n1 [Cpd 2, 6-(2-methyl-1H-benzimidazol-1-yl)-N-[4-(trifluoromethyl)phenyl]-1,3,5-triazine-2,4-diamine] here?
Answer: 10 to 100 nM

Question: For Cc1nc2ccccc2n1-c1nc(N)nc(Nc2ccc(OC(F)(F)F)cc2)n1 [Cpd 3, 6-(2-methyl-1H-benzimidazol-1-yl)-N-[4-(trifluoromethoxy)phenyl]-1,3,5-triazine-2,4-diamine], which EC50 is on record?
Answer: 100 to 3000 nM

Question: How did the EC50 turn out when Cc1nc2ccccc2n1-c1nc(N)nc(Nc2ccc(OC(F)F)cc2)n1 [Cpd 4, N-[4-(difluoromethoxy)phenyl]-6-(2-methyl-1H-benzimidazol-1-yl)-1,3,5-triazine-2,4-diamine] was run?
Answer: 10 to 100 nM

Question: Which EC50 does the source give for Cc1nc2ccccc2n1-c1nc(N)nc(Nc2ccc(C(F)(F)F)c(F)c2)n1 [Cpd 5, N-[3-fluoro-4-(trifluoromethyl)phenyl]-6-(2-methyl-1H-benzimidazol-1-yl)-1,3,5-triazine-2,4-diamine] here?
Answer: 100 to 3000 nM

Question: Cc1nc2ccccc2n1-c1nc(N)nc(Nc2ccc(OC(F)F)c(F)c2)n1 [Cpd 6, N-[4-(difluoromethoxy)-3-fluorophenyl]-6-(2-methyl-1H-benzimidazol-1-yl)-1,3,5-triazine-2,4-diamine] was tested. Which EC50 did it give?
Answer: 10 to 100 nM

Question: For Cc1nc2ccccc2n1-c1nc(N)nc(Nc2ccc3[nH]ccc3c2)n1 [Cpd 7, N-(1H-indol-5-yl)-6-(2-methyl-1H-benzimidazol-1-yl)-1,3,5-triazine-2,4-diamine], which EC50 is on record?
Answer: 1 to 10 nM

Question: For Cc1nc2ccccc2n1-c1nc(N)nc(Nc2ccc3occc3c2)n1 [Cpd 8, N-(1-benzofuran-5-yl)-6-(2-methyl-1H-benzimidazol-1-yl)-1,3,5-triazine-2,4-diamine], which EC50 is on record?
Answer: 10 to 100 nM

Question: How did the EC50 turn out when Cc1nc2cc(F)c(F)cc2n1-c1nc(N)nc(Nc2ccc(C(F)(F)F)cc2)n1 [Cpd 9, 6-(5,6-difluoro-2-methyl-1H-benzimidazol-1-yl)-N-[4-(trifluoromethyl)phenyl]-1,3,5-triazine-2,4-diamine] was run?
Answer: 100 to 3000 nM

Question: For Cc1nc2cc(F)c(F)cc2n1-c1nc(N)nc(Nc2ccc(OC(F)F)c(F)c2)n1 [Cpd 10, N-[4-(difluoromethoxy)-3-fluorophenyl]-6-(5,6-difluoro-2-methyl-1H-benzimidazol-1-yl)-1,3,5-triazine-2,4-diamine], which EC50 is on record?
Answer: 100 to 3000 nM

Question: Cc1nc2cc(F)c(F)cc2n1-c1nc(N)nc(Nc2ccc(OC(F)F)cc2)n1 [Cpd 11, N-[4-(difluoromethoxy)phenyl]-6-(5,6-difluoro-2-methyl-1H-benzimidazol-1-yl)-1,3,5-triazine-2,4-diamine] was tested. Which EC50 did it give?
Answer: 10 to 100 nM

Question: Cc1nc2cc(Cl)c(Cl)cc2n1-c1nc(N)nc(Nc2ccc(C(F)(F)F)cc2)n1 [Cpd 12, 6-(5,6-dichloro-2-methyl-1H-benzimidazol-1-yl)-N-[4-(trifluoromethyl)phenyl]-1,3,5-triazine-2,4-diamine] was tested. Which EC50 did it give?
Answer: 100 to 3000 nM

Question: For Cc1nc2ccccc2n1-c1nc(NO)nc(Nc2ccc(C(F)(F)F)cc2)n1 [Cpd 13, N-hydroxy-6-(2-methyl-1H-benzimidazol-1-yl)-N′-[4-(trifluoromethyl)phenyl]-1,3,5-triazine-2,4-diamine], which EC50 is on record?
Answer: 100 to 3000 nM

Question: Which EC50 does the source give for Cc1nc2ccccc2n1-c1nc(N)nc(Nc2ccc3ncccc3c2)n1 [Cpd 14, 6-(2-methyl-1H-benzimidazol-1-yl)-N-(quinolin-6-yl)-1,3,5-triazine-2,4-diamine] here?
Answer: 1 to 10 nM

Question: Which EC50 does the source give for Cc1nc2ccccc2n1-c1nc(N)nc(Nc2ccc3ocnc3c2)n1 [Cpd 15, N-(1,3-benzoxazol-5-yl)-6-(2-methyl-1H-benzimidazol-1-yl)-1,3,5-triazine-2,4-diamine] here?
Answer: 100 to 3000 nM

Question: With Cc1nc2ccccc2n1-c1nc(NO)nc(Nc2ccc3ncccc3c2)n1 [Cpd 16, N-hydroxy-6-(2-methyl-1H-benzimidazol-1-yl)-N′-(quinolin-6-yl)-1,3,5-triazine-2,4-diamine] as the compound, how does the EC50 read?
Answer: 10 to 100 nM

Question: Which EC50 does the source give for Cc1nc2ncccc2n1-c1nc(N)nc(Nc2ccc(C(F)(F)F)cc2)n1 [Cpd 17, 6-(2-methyl-1H-imidazo[4,5-b]pyridin-1-yl)-N-[4-(trifluoromethyl)phenyl]-1,3,5-triazine-2,4-diamine] here?
Answer: 100 to 3000 nM

Question: Which EC50 does the source give for Cc1nc2ccccc2n1-c1nc(N)nc(Nc2ccc3c(c2)OCO3)n1 [Cpd 18, N-(1,3-benzodioxol-5-yl)-6-(2-methyl-1H-benzimidazol-1-yl)-1,3,5-triazine-2,4-diamine] here?
Answer: 1 to 10 nM

Question: For Cc1nc2ccccc2n1-c1nc(NCCO)nc(Nc2ccc3c(c2)OCO3)n1 [Cpd 19, 2-{[4-(1,3-benzodioxol-5-ylamino)-6-(2-methyl-1H-benzimidazol-1-yl)-1,3,5-triazin-2-yl]amino}ethanol], which EC50 is on record?
Answer: 100 to 3000 nM

Question: With Cc1nc2ccccc2n1-c1nc(N)nc(Nc2cnc3ccccc3c2)n1 [Cpd 20, 6-(2-methyl-1H-benzimidazol-1-yl)-N-(quinolin-3-yl)-1,3,5-triazine-2,4-diamine] as the compound, how does the EC50 read?
Answer: 1 to 10 nM

Question: For Cc1nc2ccccc2n1-c1nc(NCCO)nc(Nc2cnc3ccccc3c2)n1 [Cpd 21, 2-{[4-(2-methyl-1H-benzimidazol-1-yl)-6-(quinolin-3-ylamino)-1,3,5-triazin-2-yl]amino}ethanol], which EC50 is on record?
Answer: 10 to 100 nM

Question: Cc1nc2ccccc2n1-c1nc(N)nc(Nc2cc3ccccc3cn2)n1 [Cpd 22, N-(isoquinolin-3-yl)-6-(2-methyl-1H-benzimidazol-1-yl)-1,3,5-triazine-2,4-diamine] was tested. Which EC50 did it give?
Answer: 10 to 100 nM

Question: Which EC50 does the source give for Cc1nc2ncccc2n1-c1nc(N)nc(Nc2ccc(OC(F)F)cc2)n1 [Cpd 23, N-[4-(difluoromethoxy)phenyl]-6-(2-methyl-1H-imidazo[4,5-b]pyridin-1-yl)-1,3,5-triazine-2,4-diamine] here?
Answer: 100 to 3000 nM

Question: Cc1nc2ncc(F)cc2n1-c1nc(N)nc(Nc2ccc(C(F)(F)F)cc2)n1 [Cpd 24, 6-(6-fluoro-2-methyl-1H-imidazo[4,5-b]pyridin-1-yl)-N-[4-(trifluoromethyl)phenyl]-1,3,5-triazine-2,4-diamine] was tested. Which EC50 did it give?
Answer: 100 to 3000 nM

Question: For Nc1nc(Nc2ccc(C(F)(F)F)cc2)nc(-c2c(C(F)(F)F)nc3ccc(F)cn23)n1 [Cpd 25, 6-[6-fluoro-2-(trifluoromethyl)imidazo[1,2-a]pyridin-3-yl]-N-[4-(trifluoromethyl)phenyl]-1,3,5-triazine-2,4-diamine], which EC50 is on record?
Answer: 10 to 100 nM

Question: Which EC50 does the source give for Cc1nc2ccc(F)cc2n1-c1nc(N)nc(Nc2ccc(C(F)(F)F)cc2)n1 [Cpd 26, 6-(6-fluoro-2-methyl-1H-benzimidazol-1-yl)-N-[4-(trifluoromethyl)phenyl]-1,3,5-triazine-2,4-diamine] here?
Answer: 10 to 100 nM

Question: How did the EC50 turn out when Cc1nc2cc(F)ccc2n1-c1nc(N)nc(Nc2ccc(C(F)(F)F)cc2)n1 [Cpd 27, 6-(5-fluoro-2-methyl-1H-benzimidazol-1-yl)-N-[4-(trifluoromethyl)phenyl]-1,3,5-triazine-2,4-diamine] was run?
Answer: 100 to 3000 nM

Question: Which EC50 does the source give for Cc1nc2ccc(F)cc2n1-c1nc(N)nc(Nc2ccc(OC(F)F)cc2)n1 [Cpd 28, N-[4-(difluoromethoxy)phenyl]-6-(6-fluoro-2-methyl-1H-benzimidazol-1-yl)-1,3,5-triazine-2,4-diamine] here?
Answer: 10 to 100 nM

Question: Cc1nc2ccc(F)cc2n1-c1nc(N)nc(Nc2ccc(OC(F)F)c(F)c2)n1 [Cpd 29, N-[4-(difluoromethoxy)-3-fluorophenyl]-6-(6-fluoro-2-methyl-1H-benzimidazol-1-yl)-1,3,5-triazine-2,4-diamine] was tested. Which EC50 did it give?
Answer: 10 to 100 nM

Question: With CCc1nc2ccccc2n1-c1nc(N)nc(Nc2ccc(C(F)(F)F)cc2)n1 [Cpd 30, 6-(2-ethyl-1H-benzimidazol-1-yl)-N-[4-(trifluoromethyl)phenyl]-1,3,5-triazine-2,4-diamine] as the compound, how does the EC50 read?
Answer: 10 to 100 nM

Reference: US9975878B2, “Substituted triazine BMI-1 inhibitors” (PTC Therapeutics, Inc., priority 2013, dated 2018)
